Test results from US9963467B2, “Boronic acid derivatives and therapeutic uses thereof” (Rempex Pharmaceuticals, Inc., priority 2014, dated 2018).

Tests used:
ec308 (SHV-5) [1] = assay: Tigemonam potentiation (MPC@4), ec308; type: cell-based
ec302 (TEM-10) [2] = assay: Tigemonam potentiation (MPC@4), ec302; type: cell-based
KP1009 (CTX-M-15) [3] = assay: organism not typed; type: cell-based
KP1086 (OXA-48) = assay: Biapenem potentiation (MPC@1), KP1086; settings: BLI with biapenem at 1 μg/mL
KP1005 (CTX-M-14) [4] = assay: Aztreonam potentiation (MPC@4), KP1005; type: cell-based; settings: BLI with aztreonam at 4 μg/mL
OXA-48 = OXA-48 (Klebsiella pneumoniae, UniProt Q6XEC0); assay: Ki, nitrocefin cleavage by purified enzyme, OXA-48; type: biochemical; settings: nitrocefin reporter substrate; read-out: Ki (OXA-48, NCF)
In short: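 10 min RT preincubation, enzyme with inhibitor series in reaction buffer. Substrate nitrocefin; kinetic read 490 nm, 10 sec intervals, 10 min total.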

KP1009 (CTX-M-15) [5] = assay: Tigemonam potentiation (MPC@4), KP1009; type: cell-based; settings: for TIG MPC4 CTX-M-15 KP1009: BLI with tigemonam at 4 μg/mL
KP1005 (CTX-M-14) [6] = assay: Tigemonam potentiation (MPC@4), KP1005; type: cell-based; settings: for TIG MPC4 CTX-M-14 KP1005: BLI with tigemonam at 4 μg/mL
ECL1002 [7] = assay: Aztreonam potentiation (MPC@4), ECL1002; type: cell-based; settings: BLI with aztreonam at 4 μg/mL
KP1004 (KPC-2) = assay: Biapenem potentiation (MPC@1), KP1004; settings: BLI with biapenem at 1 μg/mL
KP1010 (SHV-12) [8] = assay: Aztreonam potentiation (MPC@4), KP1010; type: cell-based
ec302 (TEM-10) [9] = assay: Aztreonam potentiation (MPC@4), ec302; type: cell-based; settings: BLI with aztreonam at 4 μg/mL
PAM1154/KPC-2 = assay: Biapenem potentiation MPC64, PAM1154/KPC-2 (efflux deficient); type: cell-based, Pseudomonas aeruginosa; settings: BLI to decrease MIC of biapenem 64-fold; lacking MexAB-OprM
Experimental: (§1) Efflux of BLIs from Pseudomonas aeruginosa by the MexAB-OprM efflux pump was also evaluated. […] Due to expression of KPC-2 both strains became resistant to biapenem. […] Potency of BLIs to potentiate biapenem in these strains was determined. […] The ratio of MPC64 values for each BLI in PAM1032/KPC-2 (efflux proficient) and PAM1154/KPC-2 (efflux deficient) was determined to generate the Efflux Index (EI).

KP1010 (SHV-12) [10] = assay: Tigemonam potentiation (MPC@4), KP1010; type: cell-based
EC1010 (CMY-6) [11] = assay: organism not typed; type: cell-based
ec308 (SHV-5) [12] = assay: Aztreonam potentiation (MPC@4), ec308; type: cell-based; settings: BLI with aztreonam at 4 μg/mL
ECL1002 [13] = assay: Tigemonam potentiation (MPC@4), ECL1002; type: cell-based; settings: for TIG MPC4 ECL1002: BLI with tigemonam at 4 μg/mL
PAM1032/KPC-2 = assay: Biapenem potentiation MPC64, PAM1032/KPC-2 (efflux proficient); type: cell-based, Pseudomonas aeruginosa; settings: BLI to decrease MIC of biapenem 64-fold; MexAB-OprM overexpressed
Experimental: as §1

[14] = Intravenous pharmacokinetics; type: in vivo; settings: rat, plasma; rats, 20 mg/kg, intravenous infusion over 0.5 hours; read-out: Free Cl (converted)
Experimental: Rats (n=3 per compound) were administered by a single infusion. Intravenous doses were infused over 0.5 hours via an indwelling femoral vein cannula. […] (˜0.3 mL) samples were collected from each rat at designated time points up to 24 hours. Blood samples were centrifuged within 5 min of collection at 12000 g for 5 min to obtain plasma. The plasma samples were stored at −80° C. until analyzed. Data were analyzed using WinNonlin. The doses of all compounds tested were 20 mg/kg.

[15] = tested on: strains overexpressing class A (ESBL) and class C beta-lactamases; assay: Tigemonam MIC of test strains; type: cell-based; settings: across the test strains
EC1010 (CMY-6) [16] = assay: Tigemonam potentiation (MPC@4), EC1010; type: cell-based; settings: tigemonam alone

OXA-48, sequence (Q6XEC0 23-265, looked up, species assumed): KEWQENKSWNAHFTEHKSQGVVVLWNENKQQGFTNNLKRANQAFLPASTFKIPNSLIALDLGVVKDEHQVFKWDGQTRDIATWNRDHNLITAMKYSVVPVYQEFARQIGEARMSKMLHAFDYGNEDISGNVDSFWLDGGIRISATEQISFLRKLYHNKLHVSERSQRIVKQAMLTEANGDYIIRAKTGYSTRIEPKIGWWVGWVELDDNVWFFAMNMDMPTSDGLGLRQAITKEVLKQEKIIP

Row | Structure (SMILES) | TIG MPC4 SHV-5 ec308 (ec308 (SHV-5) [1]) | TIG MPC4 TEM-10 ec302 (ec302 (TEM-10) [2]) | AZT MPC4 CTX-M-15 KP1009 (KP1009 (CTX-M-15) [3]) | BPM MPC1 OXA-48 KP1086 (KP1086 (OXA-48)) | TIG MPC4 CTX-M-15 KP1009 (KP1009 (CTX-M-15) [5]) | TIG MPC4 CTX-M-14 KP1005 (KP1005 (CTX-M-14) [6]) | BPM MPC1 KP1004 KPC-2 (KP1004 (KPC-2)) | AZT MPC4 SHV-12 KP1010 (KP1010 (SHV-12) [8]) | TIG MPC4 SHV-12 KP1010 (KP1010 (SHV-12) [10]) | AZT MPC4 CMY-6 EC1010 (EC1010 (CMY-6) [11]) | AZT MPC4 SHV-5 ec308 (ec308 (SHV-5) [12]) | TIG MPC4 ECL1002 (ECL1002 [13]) | PAM1032/KPC-2 Biapenem MPC64 (PAM1032/KPC-2) | also measured
1 | O=CN[C@H]1Cc2cccc(C(=O)O)c2OB1O [F, reference compound] | Y (key: X: MIC of less than 1 ng/mL; Y: MIC of 1 μg/mL to 10 μg/mL; Z: MIC of greater than 10 μg/mL) | Z (key: X: MIC of less than 1 ng/mL; Y: MIC of 1 μg/mL to 10 μg/mL; Z: MIC of greater than 10 μg/mL) | Y (key: X: MIC of less than 1 ng/mL; Y: MIC of 1 μg/mL to 10 μg/mL; Z: MIC of greater than 10 μg/mL) | Y (MIC of 1 μg/mL to 10 μg/mL) | Y (MIC of 1 μg/mL to 10 μg/mL) | Y (MIC of 1 μg/mL to 10 μg/mL) | X (MIC of less than 1 μg/mL) | Y (key: X: MIC of less than 1 ng/mL; Y: MIC of 1 μg/mL to 10 μg/mL; Z: MIC of greater than 10 μg/mL) | Y (key: X: MIC of less than 1 ng/mL; Y: MIC of 1 μg/mL to 10 μg/mL; Z: MIC of greater than 10 μg/mL) | Y (key: X: MIC of less than 1 ng/mL; Y: MIC of 1 μg/mL to 10 μg/mL; Z: MIC of greater than 10 μg/mL) | Y (MIC of 1 μg/mL to 10 μg/mL) | X (MIC of less than 1 μg/mL) | 5 | AZT MPC4 CTX-M-14 KP1005 (KP1005 (CTX-M-14) [4]): Y (MIC of 1 μg/mL to 10 μg/mL); Ki (OXA-48): < 1 nM; AZT MPC4 ECL1002 (ECL1002 [7]): Y (MIC of 1 μg/mL to 10 μg/mL); AZT MPC4 TEM-10 ec302 (ec302 (TEM-10) [9]): Z (MIC of greater than 10 μg/mL); PAM1154/KPC-2 Biapenem MPC64 (PAM1154/KPC-2): 1.25
2 | O=C(Cc1cccs1)N[C@H]1Cc2cccc(C(=O)O)c2OB1O [I, reference compound] | X (key: X: MIC of less than 1 μg/mL; Y: MIC of 1 μg/mL to 10 μg/mL; Z: MIC of greater than 10 μg/mL) | Z (key: X: MIC of less than 1 ng/mL; Y: MIC of 1 μg/mL to 10 μg/mL; Z: MIC of greater than 10 μg/mL) | Y (key: X: MIC of less than 1 ng/mL; Y: MIC of 1 μg/mL to 10 μg/mL; Z: MIC of greater than 10 μg/mL) | Y (MIC of 1 μg/mL to 10 μg/mL) | Y (MIC of 1 μg/mL to 10 μg/mL) | Y (MIC of 1 μg/mL to 10 μg/mL) | X (MIC of less than 1 μg/mL) | X (key: X: MIC of less than 1 ng/mL; Y: MIC of 1 μg/mL to 10 μg/mL; Z: MIC of greater than 10 μg/mL) | X (key: X: MIC of less than 1 μg/mL; Y: MIC of 1 μg/mL to 10 μg/mL; Z: MIC of greater than 10 μg/mL) | Y (key: X: MIC of less than 1 ng/mL; Y: MIC of 1 μg/mL to 10 μg/mL; Z: MIC of greater than 10 μg/mL) | X (MIC of less than 1 ng/mL) | X (MIC of less than 1 μg/mL) | 80 | clearance [14]: 8.17 L/h/kg
3 | CC1(C)[C@H](NC(=O)/C(=N\OCC(=O)O)c2csc(N)n2)C(=O)N1OS(=O)(=O)O [Tigemonam, reference compound] |  |  |  |  |  |  |  |  |  |  |  |  |  | Tigemonam MIC ec308 (ec308 (SHV-5) [1]; tigemonam alone): Z (MIC of greater than 10 μg/mL); Tigemonam MIC ec302 (ec302 (TEM-10) [2]; tigemonam alone): Z (MIC of greater than 10 μg/mL); Tigemonam MIC KP1009 (KP1009 (CTX-M-15) [5]; tigemonam alone): Z (MIC of greater than 10 μg/mL); Tigemonam MIC KP1005 (KP1005 (CTX-M-14) [6]; tigemonam alone): Z (MIC of greater than 10 μg/mL); Tigemonam MICs of test strains [15]: ≥ 16 µg/mL; Tigemonam MIC KP1010 (KP1010 (SHV-12) [10]; tigemonam alone): Z (MIC of greater than 10 μg/mL); Tigemonam MIC EC1010 (EC1010 (CMY-6) [16]): Z (MIC of greater than 10 μg/mL); Tigemonam MIC ECL1002 (ECL1002 [13]; tigemonam alone): Z (MIC of greater than 10 μg/mL)
